{"source": "paper PMC11919252", "about": "(eLife, 2025)", "key": {"[1]": {"tested_on": "WT and Tac1::Calca DKO mice", "test": "Oxaliplatin cold allodynia, Cold Plate", "assay_type": "in vivo, mouse", "details": "intraplantar oxaliplatin, one day after treatment, Cold Plate at 10 °C, 5 min", "text": "The plate was set to the desired temperature. A camera set up with a mirror was used for better visibility of the mouse on the hot plate. A clear cylindrical tube was placed around the hot plate to ensure the mouse cannot escape. Once the hot plate reached the set temperature, the mouse was placed on the hot plate and the top of the cylinder was covered. At the cut-off time, the mouse was taken off the hot plate and placed back in the cage. The latency to lick was scored post-hoc using the recorded videos by a blinded observer.\nChemotherapy-induced neuropathy was induced in mice by intraplantar injection of oxaliplatin into the left hind paw ([Deuis et al., 2013]; [MacDonald et al., 2021]). Oxaliplatin was made up to a dose of 80 µg in 40 µl of 5% glucose solution, due to its instability in chloride-containing saline solution. The number of nocifensive behaviors in 5 min was assessed on the Cold Plate held at 10 °C 24 hr later."}, "[2]": {"tested_on": "WT and Tac1::Calca DKO mice", "details": "background statement on oxaliplatin; ref MacDonald et al., 2021; cited from earlier work", "text": "Lastly, we investigated how dual peptide deletion affected the development of allodynia symptoms, where innocuous stimuli are perceived as painful, in two mouse models of neuropathic pain ([Jensen and Finnerup, 2014])."}}, "data": [{"smiles": "O=C1[O][Pt]2([NH][C@@H]3CCCC[C@H]3[NH]2)[O]C1=O", "note": "[oxaliplatin]", "values": [{"measurement": "Pain-like behaviors on Cold Plate", "setting": "[1]", "value": "both DKO and WT animals displayed pronounced pain-like behaviors"}, {"measurement": "Cold allodynia evoked by oxaliplatin", "setting": "[2]", "value": "evokes extreme cold allodynia"}]}]}
